Laboratory results as given in article PMC10606064, “2-Aminothiazole-Flavonoid Hybrid Derivatives Binding to Tau Protein and Responsible for Antitumor Activity in Glioblastoma” (International Journal of Molecular Sciences, 2023).

Columns and labels:
[1] = tested on: Caco-2 colon adenocarcinoma cells; assay: MTT cell viability assay, Caco-2; assay type: cell-based; details: Homo sapiens, Caco-2 (not expressing Tau), 72 h, mean ± SEM, read-out: IC50 (metabolic activity)
Protocol: (§1) Cells harvested from sub-confluent monolayers were seeded at 15,000 cells per mL in a 96-well microtiter plate (Cambridge Technology, Labège, France) and cultured for 24 h under standard conditions. Standard medium was then replaced by fresh medium containing no drugs or compounds at different concentrations. The surviving cells were quantified after 72 h by the MTT assay, according to the manufacturer’s instructions. Briefly, 20 µL of 3-(4,5-diMethylThiazol-2-yl)-2,5diphenyl Tetrazolium bromide (MTT) solution at 5 mg.mL^−1 was added to cells for 3 h at 37 °C. The supernatant was discarded and replaced by 100 µL of dimethyl sulfoxide to dissolve formazan crystals. The absorbance was then read at 600 nm by spectrophotometry. For all concentrations of a given compound, cell viability was expressed as the percentage of the ratio between the mean absorbance of treated cells and the mean absorbance of untreated cells. Three independent experiments were performed, and the data were expressed as percentage of survival (using the untreated cells as 100%) and subjected to statistical analysis (n = 3). The IC50 was calculated using the Chou and Talalay method.

U87 shTau cells = assay: MTT cell viability assay, U87 shTau (Tau-depleted); assay type: cell-based; details: Homo sapiens, 72 h, mean ± SEM, read-out: IC50 (metabolic activity)
Protocol: All cell lines were purchased from ATCC, Gaithersburg, MD, USA. Cells from human glioblastoma (clones U87 wt, HTB-14; U118, HTB-15; U251, HTB-12; U138, HTB-16), neuroblastoma (clone SK-N-SH, HTB-11), and colorectal adenocarcinoma (clone Caco-2, HTB-37) were routinely grown at 37 °C in a humidified atmosphere containing 5% CO2. Cells were maintained by regular passages in complete media supplemented with 10% FBS, 2mM of L-glutamine, 100 U/mL of penicillin, and 50 U/mL of streptomycin (Invitrogen, Paris, France). For U87 wt, U251, U138, and SK-N-SH cells, the medium consisted of EMEM (Lonza, Levallois Perret, France). U118 and Caco-2 lines were maintained in DMEM. The U87 wt-derived lines, U87 shCTRL, and U87 shTau2 cells were continuously maintained in complete EMEM medium supplemented with 0.4 µg/mL of puromycin. The shRNA sequences and the protocol of clone selection and Tau downregulation were previously described in [20]. For Tau expression rescue, the U87 shCTRL and U87 shTau cells were seeded two days prior to experiments at 4.10^5 cells per 60 mm dish in 6 mL of complete medium. Cells were transfected using LipofectAmine 2000 according to Invitrogen instructions and 8 µg EGFP-free plasmid constructs (for U87 shCTRL) and EGFP-hTau40 plasmid constructs (for U87 shTau) were used in total. One day prior to experiments, all cells were plated in a 96-well microtiter plate to prepare for viability assays. Cells were free from mycoplasma as determined by mycoalert tests (Lonza).
as §1

[2] = tested on: caspase 3 protein (Casp3) in U87 shCTRL and U87 shTau cells; assay: Caspase 3 expression by Western blot (apoptosis); assay type: cell-based, human; details: both cell types, 48 h treatment
Protocol: Cells were lysed with freshly made RIPA buffer derivative (4.3 mL of TBS 1×, 50 µL of SDS 10%, 10 µL of EDTA 0.5 M, 500 µL of Triton 10×, and 1% inhibitors of protease and phosphatase). After 30 min of lysis at 4 °C under agitation, lysates were centrifuged at 10,000× g for 10 min at 4 °C. Equivalent amounts of proteins from the supernatant fraction were subjected to Western blot analysis. Protein samples were loaded (40 μg/lane) and separated on 10 or 12% sodium dodecyl sulfate-polyacrylamide gels. The separated proteins were transferred onto nitrocellulose blotting membrane using the Bio-Rad transfer system. Before blocking, the blots were stained with Ponceau red to visualize transfer efficiency. […] The band intensity was quantified using the ImageJ v1.50g software. […] The band intensity was quantified using the NIH ImageJ v1.50g software. […]
death. (A) The apoptotic protein casp ase 3 (Casp 3) was analy zed by western blot of U87 shCTRL and U87 shTau cells: for each s ample t he ratio between the amount of Casp3 and GAPDH was calculated as relative fold of the reference value (with or without the compound); n = 3 lysates, ns: non-si gnificant. […]
blot used for quantification. (B) The activity of necrotic LDH protein was analy zed by fluorescence emission in U87 shCTRL (upper panel) and U87 shTau (lower panel) cells. […]

| IC50 [1] [µM] | IC50 (U87 shTau cells) [µM] | Structure (SMILES) | expression of caspase 3 (Casp3) [2] |
| --- | --- | --- | --- |
| > 100 | 4.7 ± 0.3 | Nc1nc2ccc3oc(-c4cccc(Oc5ccccc5)c4)cc(=O)c3c2s1 [Compound 2, 2-amino-7-(3-phenoxyphenyl)-9H-chromeno [6,5-d]thiazol-9-one] | no change in the expression of Casp3 |
| > 100 | > 100 | Nc1nc2ccc3oc(C(=O)O)cc(=O)c3c2s1 [Compound 5] | no change in the expression of Casp3 |
